Assay results reported in paper PMC6407917, “Identification of GSK3186899/DDD853651 as a Preclinical Development Candidate for the Treatment of Visceral Leishmaniasis” (Journal of Medicinal Chemistry, 2018).

Legend:
Assay in all cases: biochemical
Design in all cases: species or system HEK293/K-562/placenta mixed human extract; Kinobeads chemoproteomic competition binding, quantified by TMT LC-MS/MS, dose response up to 20 uM
AXL = AXL (Homo sapiens, UniProt P30530)
PIK3C3 = PIK3C3 (Homo sapiens, UniProt Q8NEB9)
MAP2K6 = MAP2K6 (Homo sapiens, UniProt P52564)
RPS6KA5 = RPS6KA5 (Homo sapiens, UniProt O75582)
MAP3K15 = MAP3K15 (Homo sapiens, UniProt Q6ZN16)
KDR = KDR (Homo sapiens, UniProt P35968)
PRKD2 = PRKD2 (Homo sapiens, UniProt Q9BZL6)
HIPK1 = HIPK1 (Homo sapiens, UniProt Q86Z02)
NEK9 = NEK9 (Homo sapiens, UniProt Q8TD19)
PRKCZ = PRKCZ (Homo sapiens, UniProt Q05513)
FLT4 = FLT4 (Homo sapiens, UniProt P35916)
RPS6KA4 = RPS6KA4 (Homo sapiens, UniProt O75676)
YES1 = YES1 (Homo sapiens, UniProt P07947)
GSK3A = GSK3A (Homo sapiens, UniProt P49840)
PIK3C2B = PIK3C2B (Homo sapiens, UniProt O00750)
JAK3 = JAK3 (Homo sapiens, UniProt P52333)
GSK3B = GSK3B (Homo sapiens, UniProt P49841)
NUAK1 = NUAK1 (Homo sapiens, UniProt O60285)
BRSK2 = BRSK2 (Homo sapiens, UniProt Q8IWQ3)
MAP4K1 = MAP4K1 (Homo sapiens, UniProt Q92918)
WEE1 = WEE1 (Homo sapiens, UniProt P30291)

Sequence of PRKD2 (Q9BZL6 whole entry): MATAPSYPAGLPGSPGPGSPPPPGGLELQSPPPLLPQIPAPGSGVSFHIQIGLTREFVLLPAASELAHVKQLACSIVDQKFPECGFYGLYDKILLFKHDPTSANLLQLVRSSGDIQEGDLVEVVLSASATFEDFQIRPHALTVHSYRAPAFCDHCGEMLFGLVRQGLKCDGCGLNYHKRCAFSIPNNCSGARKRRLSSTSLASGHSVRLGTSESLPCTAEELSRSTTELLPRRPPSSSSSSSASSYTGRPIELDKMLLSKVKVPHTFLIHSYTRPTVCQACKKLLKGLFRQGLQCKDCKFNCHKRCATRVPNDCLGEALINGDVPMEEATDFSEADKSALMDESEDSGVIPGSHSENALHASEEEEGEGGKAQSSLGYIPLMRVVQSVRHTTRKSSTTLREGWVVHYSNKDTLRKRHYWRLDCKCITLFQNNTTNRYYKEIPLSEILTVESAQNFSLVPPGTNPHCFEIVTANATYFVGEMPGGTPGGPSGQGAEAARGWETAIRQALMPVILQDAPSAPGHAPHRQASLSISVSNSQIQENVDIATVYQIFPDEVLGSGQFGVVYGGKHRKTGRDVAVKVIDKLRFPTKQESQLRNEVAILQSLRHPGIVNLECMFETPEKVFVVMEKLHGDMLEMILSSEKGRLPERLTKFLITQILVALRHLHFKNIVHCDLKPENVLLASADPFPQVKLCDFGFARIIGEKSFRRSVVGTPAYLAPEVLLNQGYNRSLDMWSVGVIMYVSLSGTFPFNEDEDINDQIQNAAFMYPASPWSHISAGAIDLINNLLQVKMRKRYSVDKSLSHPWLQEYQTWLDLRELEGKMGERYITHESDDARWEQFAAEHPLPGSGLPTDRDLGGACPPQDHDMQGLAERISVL
Sequence of RPS6KA4 (O75676 whole entry): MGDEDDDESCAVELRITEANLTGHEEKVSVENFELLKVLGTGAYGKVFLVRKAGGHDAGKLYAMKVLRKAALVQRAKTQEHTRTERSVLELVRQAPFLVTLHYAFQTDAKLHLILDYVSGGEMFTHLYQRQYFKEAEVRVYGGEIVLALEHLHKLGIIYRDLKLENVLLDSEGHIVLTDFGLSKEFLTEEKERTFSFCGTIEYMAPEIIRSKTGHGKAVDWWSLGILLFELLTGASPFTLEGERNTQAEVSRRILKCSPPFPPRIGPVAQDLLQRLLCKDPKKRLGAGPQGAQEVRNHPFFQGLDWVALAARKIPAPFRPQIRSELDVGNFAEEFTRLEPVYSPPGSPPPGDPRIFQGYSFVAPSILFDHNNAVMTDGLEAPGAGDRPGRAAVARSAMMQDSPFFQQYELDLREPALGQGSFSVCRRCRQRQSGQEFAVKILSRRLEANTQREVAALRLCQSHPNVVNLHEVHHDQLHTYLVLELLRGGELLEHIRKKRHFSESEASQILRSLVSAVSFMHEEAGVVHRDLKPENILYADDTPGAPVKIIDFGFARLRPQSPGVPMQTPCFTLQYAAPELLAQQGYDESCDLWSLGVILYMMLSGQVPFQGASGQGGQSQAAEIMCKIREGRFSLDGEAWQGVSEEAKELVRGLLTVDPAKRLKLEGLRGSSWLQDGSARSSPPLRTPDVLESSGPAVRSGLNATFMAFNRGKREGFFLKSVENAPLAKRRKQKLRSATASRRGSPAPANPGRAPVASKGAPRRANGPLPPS
Sequence of GSK3B (P49841 whole entry): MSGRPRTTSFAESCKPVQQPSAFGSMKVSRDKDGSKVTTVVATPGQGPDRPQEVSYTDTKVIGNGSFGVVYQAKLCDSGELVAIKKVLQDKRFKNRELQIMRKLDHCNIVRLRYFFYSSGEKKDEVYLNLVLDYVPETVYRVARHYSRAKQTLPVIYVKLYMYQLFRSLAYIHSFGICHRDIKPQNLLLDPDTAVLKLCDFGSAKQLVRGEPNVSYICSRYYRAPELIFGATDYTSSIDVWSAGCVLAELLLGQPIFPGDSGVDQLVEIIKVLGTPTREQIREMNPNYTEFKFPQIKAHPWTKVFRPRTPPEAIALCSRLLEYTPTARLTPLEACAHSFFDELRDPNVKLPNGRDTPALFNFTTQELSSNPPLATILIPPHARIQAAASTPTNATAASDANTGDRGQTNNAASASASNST
Sequence of NUAK1 (O60285 whole entry): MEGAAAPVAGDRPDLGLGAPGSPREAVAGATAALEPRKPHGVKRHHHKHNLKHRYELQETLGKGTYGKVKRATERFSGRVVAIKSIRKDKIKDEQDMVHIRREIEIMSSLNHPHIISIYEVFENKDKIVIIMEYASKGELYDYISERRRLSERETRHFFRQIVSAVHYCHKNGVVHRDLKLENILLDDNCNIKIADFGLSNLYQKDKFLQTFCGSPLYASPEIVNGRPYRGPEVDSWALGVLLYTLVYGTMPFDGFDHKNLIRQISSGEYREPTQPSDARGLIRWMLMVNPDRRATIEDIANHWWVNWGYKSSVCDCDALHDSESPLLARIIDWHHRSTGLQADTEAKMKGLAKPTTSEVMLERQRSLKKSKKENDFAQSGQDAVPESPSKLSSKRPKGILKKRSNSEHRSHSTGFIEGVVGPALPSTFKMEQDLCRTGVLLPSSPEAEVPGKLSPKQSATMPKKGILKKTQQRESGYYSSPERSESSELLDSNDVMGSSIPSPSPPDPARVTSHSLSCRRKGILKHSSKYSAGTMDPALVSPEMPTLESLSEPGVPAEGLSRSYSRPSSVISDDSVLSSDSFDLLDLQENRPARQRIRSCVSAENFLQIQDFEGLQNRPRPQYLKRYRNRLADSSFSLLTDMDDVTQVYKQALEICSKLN
Sequence of MAP2K6 (P52564 whole entry): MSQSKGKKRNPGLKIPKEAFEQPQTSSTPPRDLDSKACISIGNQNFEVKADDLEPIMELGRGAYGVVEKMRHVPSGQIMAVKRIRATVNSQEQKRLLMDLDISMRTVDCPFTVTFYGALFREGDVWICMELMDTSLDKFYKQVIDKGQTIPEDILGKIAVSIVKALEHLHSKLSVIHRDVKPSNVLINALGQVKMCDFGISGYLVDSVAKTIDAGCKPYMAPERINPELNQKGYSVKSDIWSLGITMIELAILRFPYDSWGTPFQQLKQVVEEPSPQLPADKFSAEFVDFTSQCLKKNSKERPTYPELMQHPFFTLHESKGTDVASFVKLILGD
Sequence of FLT4 (P35916 whole entry): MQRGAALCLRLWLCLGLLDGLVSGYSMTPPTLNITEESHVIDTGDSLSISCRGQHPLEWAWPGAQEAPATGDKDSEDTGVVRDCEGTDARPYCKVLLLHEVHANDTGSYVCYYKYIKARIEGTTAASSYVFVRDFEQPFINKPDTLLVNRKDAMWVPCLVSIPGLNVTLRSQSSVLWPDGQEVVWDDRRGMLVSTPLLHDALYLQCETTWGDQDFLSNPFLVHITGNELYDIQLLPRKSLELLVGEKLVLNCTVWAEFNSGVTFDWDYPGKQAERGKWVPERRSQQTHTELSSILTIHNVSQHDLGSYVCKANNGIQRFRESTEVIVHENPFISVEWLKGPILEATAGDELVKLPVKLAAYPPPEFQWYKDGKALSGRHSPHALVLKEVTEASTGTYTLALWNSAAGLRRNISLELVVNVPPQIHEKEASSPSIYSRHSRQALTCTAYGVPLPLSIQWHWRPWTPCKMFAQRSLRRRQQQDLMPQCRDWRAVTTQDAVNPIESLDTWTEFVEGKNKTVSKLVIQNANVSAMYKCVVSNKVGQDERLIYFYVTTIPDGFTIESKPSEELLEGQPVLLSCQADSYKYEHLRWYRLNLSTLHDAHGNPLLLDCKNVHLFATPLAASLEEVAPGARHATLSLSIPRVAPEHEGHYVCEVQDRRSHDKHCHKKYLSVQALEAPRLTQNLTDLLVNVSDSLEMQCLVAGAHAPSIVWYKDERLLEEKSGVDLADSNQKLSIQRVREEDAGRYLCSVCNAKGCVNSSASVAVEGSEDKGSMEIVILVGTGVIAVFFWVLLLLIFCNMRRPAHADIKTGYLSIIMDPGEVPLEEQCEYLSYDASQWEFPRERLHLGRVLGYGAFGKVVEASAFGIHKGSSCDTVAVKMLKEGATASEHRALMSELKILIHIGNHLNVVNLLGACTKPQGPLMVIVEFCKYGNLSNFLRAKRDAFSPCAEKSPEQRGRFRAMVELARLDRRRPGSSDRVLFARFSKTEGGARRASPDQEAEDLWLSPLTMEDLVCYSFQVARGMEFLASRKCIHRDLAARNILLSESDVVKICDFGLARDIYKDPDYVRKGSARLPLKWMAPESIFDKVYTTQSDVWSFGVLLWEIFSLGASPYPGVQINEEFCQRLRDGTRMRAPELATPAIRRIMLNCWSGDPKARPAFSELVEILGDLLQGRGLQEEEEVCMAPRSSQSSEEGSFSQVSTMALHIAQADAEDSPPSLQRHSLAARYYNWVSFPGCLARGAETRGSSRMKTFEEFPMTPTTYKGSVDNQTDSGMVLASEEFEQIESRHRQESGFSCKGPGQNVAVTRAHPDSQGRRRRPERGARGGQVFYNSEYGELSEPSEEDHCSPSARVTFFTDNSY
Sequence of GSK3A (P49840 whole entry): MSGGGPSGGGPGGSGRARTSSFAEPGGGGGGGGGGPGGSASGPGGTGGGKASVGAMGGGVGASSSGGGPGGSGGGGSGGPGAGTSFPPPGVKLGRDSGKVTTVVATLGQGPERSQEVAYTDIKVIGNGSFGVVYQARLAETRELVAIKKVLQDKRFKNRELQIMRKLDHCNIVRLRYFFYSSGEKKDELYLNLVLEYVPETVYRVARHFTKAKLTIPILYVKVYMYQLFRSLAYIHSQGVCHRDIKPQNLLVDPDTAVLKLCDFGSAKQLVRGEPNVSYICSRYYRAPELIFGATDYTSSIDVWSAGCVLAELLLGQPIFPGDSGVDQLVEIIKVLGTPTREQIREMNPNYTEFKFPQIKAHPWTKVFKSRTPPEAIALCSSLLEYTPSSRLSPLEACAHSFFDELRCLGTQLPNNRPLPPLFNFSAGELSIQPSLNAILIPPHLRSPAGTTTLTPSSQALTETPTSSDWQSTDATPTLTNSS

- IC50 (AXL): ≥ 20 µM
- IC50 (PIK3C3): ≥ 20 µM
- IC50 (MAP2K6): ≥ 20 µM
- IC50 (RPS6KA5): ≥ 20 µM
- IC50 (MAP3K15): ≥ 20 µM
- IC50 (KDR): ≥ 20 µM
- IC50 (PRKD2): ≥ 20 µM
- IC50 (HIPK1): ≥ 20 µM
- IC50 (PRKCZ): ≥ 20 µM
- IC50 (FLT4): ≥ 20 µM
- IC50 (RPS6KA4): ≥ 20 µM
- IC50 (YES1): ≥ 20 µM
- IC50 (GSK3A): ≥ 20 µM
- IC50 (PIK3C2B): ≥ 20 µM
- IC50 (JAK3): ≥ 20 µM
- IC50 (GSK3B): ≥ 20 µM
- IC50 (NUAK1): ≥ 20 µM
- IC50 (BRSK2): ≥ 20 µM
- IC50 (MAP4K1): ≥ 20 µM
- IC50 (WEE1): ≥ 20 µM
Structure (SMILES): COc1ccccc1-c1n[nH]c2nc(N[C@H]3CC[C@H](NS(=O)(=O)CCC(F)(F)F)CC3)nc(OC)c12 [compound 31, 3,3,3-Trifluoro-N-(trans-4-((4-methoxy-3-(2-methoxyphenyl)-1H-pyrazolo[3,4-d]pyrimidin-6-yl)amino)cyclohexyl)propane-1-sulfonamide]
- IC50 (NEK9): ≥ 20 µM
